According to PubChem BioAssay AID1963858 (Molecular Pharmacology Branch, DTP, NCI, 2024):

Test system: HOP-62 multicell spheroids with HUVEC/MSC, viability
Test: Anticancer human tumor HOP-62 cell line growth inhibition [KRAS2];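 further: viability read after a week of compound exposure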;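 on viability, T/C: 100% = DMSO vehicle-treated spheroids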
Details: for viability, T/C: stronger effect = lower value
How it was run: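 Combination screen of spheroid viability in tumor-cell co-cultures with endothelial (HUVEC) and mesenchymal stem cell stroma. Each agent was tested in half-log dilutions, topping at clinical Cmax or at 10 microM without a known Cmax.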

[1] = curve of first compound, second compound 0.1 µM
[2] = curve of first compound, second compound 0.316 µM
[3] = curve of first compound, second compound 1 µM
[4] = curve of first compound, second compound 3.16 µM
[5] = curve of first compound, second compound 10 µM
[6] = second compound 0.1 µM, first compound 0.0316 µM
[7] = second compound 0.1 µM, first compound 0.1 µM
[8] = second compound 0.1 µM, first compound 0.316 µM
[9] = second compound 0.1 µM, first compound 1 µM
[10] = second compound 0.1 µM, first compound 3.16 µM
[11] = second compound 0.1 µM, first compound 10 µM
[12] = second compound 0.316 µM, first compound 0.0316 µM
[13] = second compound 0.316 µM, first compound 0.1 µM
[14] = second compound 0.316 µM, first compound 0.316 µM
[15] = second compound 0.316 µM, first compound 1 µM
[16] = second compound 0.316 µM, first compound 3.16 µM
[17] = second compound 0.316 µM, first compound 10 µM
[18] = second compound 1 µM, first compound 0.0316 µM
[19] = second compound 1 µM, first compound 0.1 µM
[20] = second compound 1 µM, first compound 0.316 µM
[21] = second compound 1 µM, first compound 1 µM
[22] = second compound 1 µM, first compound 3.16 µM
[23] = second compound 1 µM, first compound 10 µM
[24] = second compound 3.16 µM, first compound 0.0316 µM
[25] = second compound 3.16 µM, first compound 0.1 µM
[26] = second compound 3.16 µM, first compound 0.316 µM
[27] = second compound 3.16 µM, first compound 1 µM
[28] = second compound 3.16 µM, first compound 3.16 µM
[29] = second compound 3.16 µM, first compound 10 µM
[30] = second compound 10 µM, first compound 0.0316 µM
[31] = second compound 10 µM, first compound 0.1 µM
[32] = second compound 10 µM, first compound 0.316 µM
[33] = second compound 10 µM, first compound 1 µM
[34] = second compound 10 µM, first compound 3.16 µM
[35] = second compound 10 µM, first compound 10 µM
[36] = second compound 0.1 µM, first compound 0.000316 µM
[37] = second compound 0.1 µM, first compound 0.001 µM
[38] = second compound 0.1 µM, first compound 0.00316 µM
[39] = second compound 0.1 µM, first compound 0.01 µM
[40] = second compound 0.316 µM, first compound 0.000316 µM
[41] = second compound 0.316 µM, first compound 0.001 µM
[42] = second compound 0.316 µM, first compound 0.00316 µM
[43] = second compound 0.316 µM, first compound 0.01 µM
[44] = second compound 1 µM, first compound 0.000316 µM
[45] = second compound 1 µM, first compound 0.001 µM
[46] = second compound 1 µM, first compound 0.00316 µM
[47] = second compound 1 µM, first compound 0.01 µM
[48] = second compound 3.16 µM, first compound 0.000316 µM
[49] = second compound 3.16 µM, first compound 0.001 µM
[50] = second compound 3.16 µM, first compound 0.00316 µM
[51] = second compound 3.16 µM, first compound 0.01 µM
[52] = second compound 10 µM, first compound 0.000316 µM
[53] = second compound 10 µM, first compound 0.001 µM
[54] = second compound 10 µM, first compound 0.00316 µM
[55] = second compound 10 µM, first compound 0.01 µM

CC1OCC2(CCN(c3cnc(Sc4ccnc(N)c4Cl)c(N)n3)CC2)C1N (centres undefined) + COc1cc2nc(C)nc(NC(C)c3cc(N)cc(C(F)(F)F)c3)c2cc1OC1CCOC1
IC50 [1]: > 10000 nM
IC50 [2]: > 10000 nM
IC50 [3]: 1220 nM
IC50 [4]: 510 nM
IC50 [5]: 51.9 nM
viability, T/C [6]: 89.6%
viability, T/C [7]: 88.9%
viability, T/C [8]: 79.8%
viability, T/C [9]: 66%
viability, T/C [10]: 59.5%
viability, T/C [11]: 59.5%
viability, T/C [12]: 98.4%
viability, T/C [13]: 96.1%
viability, T/C [14]: 76.2%
viability, T/C [15]: 68.9%
viability, T/C [16]: 55.5%
viability, T/C [17]: 52.8%
viability, T/C [18]: 99.4%
viability, T/C [19]: 77.9%
viability, T/C [20]: 61.2%
viability, T/C [21]: 53.6%
viability, T/C [22]: 41.8%
viability, T/C [23]: 40.3%
viability, T/C [24]: 82%
viability, T/C [25]: 73.8%
viability, T/C [26]: 59.4%
viability, T/C [27]: 38.4%
viability, T/C [28]: 25.7%
viability, T/C [29]: 31.1%
viability, T/C [30]: 58%
viability, T/C [31]: 40.1%
viability, T/C [32]: 26.9%
viability, T/C [33]: 23.7%
viability, T/C [34]: 20.3%
viability, T/C [35]: 18.6%

Cn1ncnc1[C@H]1c2n[nH]c(=O)c3cc(F)cc(c23)N[C@@H]1c1ccc(F)cc1 + CNCc1ccccc1-c1csc(C(C)Nc2nc(C)nc3cc(OC)c(OC)cc23)c1
IC50 [1]: > 100 nM
IC50 [2]: > 100 nM
IC50 [3]: > 100 nM
IC50 [4]: < 0.316 nM
IC50 [5]: < 0.316 nM
viability, T/C [36]: 98.2%
viability, T/C [37]: 92.1%
viability, T/C [38]: 91.8%
viability, T/C [39]: 97.1%
viability, T/C [6]: 86.5%
viability, T/C [7]: 71%
viability, T/C [40]: 101%
viability, T/C [41]: 93.9%
viability, T/C [42]: 89.4%
viability, T/C [43]: 83.7%
viability, T/C [12]: 79.3%
viability, T/C [13]: 74.9%
viability, T/C [44]: 69.2%
viability, T/C [45]: 73%
viability, T/C [46]: 81.2%
viability, T/C [47]: 78.1%
viability, T/C [18]: 68.9%
viability, T/C [19]: 53.7%
viability, T/C [48]: 0.2%
viability, T/C [49]: 0.14%
viability, T/C [50]: 0.99%
viability, T/C [51]: 0.21%
viability, T/C [24]: 2.25%
viability, T/C [25]: 5.87%
viability, T/C [52]: 0.12%
viability, T/C [53]: 0.17%
viability, T/C [54]: 0.16%
viability, T/C [55]: 0.15%
viability, T/C [30]: 0.68%
viability, T/C [31]: 0.19%

CC(C)NCC(C(=O)N1CCN(c2ncnc3c2C(C)CC3O)CC1)c1ccc(Cl)cc1 (centres undefined) + C=CC(=O)N1CCN(c2nc(OCC3CCCN3C)nc3c2CCN(c2cccc4cccc(C)c24)C3)CC1CC#N
IC50 (curve of first compound, second compound 0.0316 µM): 173 nM
IC50 [1]: 48 nM
IC50 [2]: < 31.6 nM
IC50 [3]: < 31.6 nM
IC50 [4]: < 31.6 nM
viability, T/C (second compound 0.0316 µM, first compound 0.0316 µM): 76.8%
viability, T/C (second compound 0.0316 µM, first compound 0.1 µM): 57.4%
viability, T/C (second compound 0.0316 µM, first compound 0.316 µM): 42.4%
viability, T/C (second compound 0.0316 µM, first compound 1 µM): 18.6%
viability, T/C (second compound 0.0316 µM, first compound 3.16 µM): 8.82%
viability, T/C (second compound 0.0316 µM, first compound 10 µM): 6.71%
viability, T/C [6]: 55.9%
viability, T/C [7]: 39.7%
viability, T/C [8]: 16.1%
viability, T/C [9]: 9.65%
viability, T/C [10]: 6.16%
viability, T/C [11]: 5.4%
viability, T/C [12]: 39.4%
viability, T/C [13]: 29.7%
viability, T/C [14]: 15.2%
viability, T/C [15]: 9.41%
viability, T/C [16]: 5.86%
viability, T/C [17]: 5.37%
viability, T/C [18]: 29.8%
viability, T/C [19]: 21%
viability, T/C [20]: 14.1%
viability, T/C [21]: 7.91%
viability, T/C [22]: 5.78%
viability, T/C [23]: 5%
viability, T/C [24]: 0.51%
viability, T/C [25]: 0.35%
viability, T/C [26]: 0.44%
viability, T/C [27]: 0.32%
viability, T/C [28]: 0.31%
viability, T/C [29]: 0.41%

CCNC(=O)CC1N=C(c2ccc(Cl)cc2)c2cc(OC)ccc2-n2c(C)nnc21 (centres undefined)
viability, T/C (compound 0.0316 µM): 105% [middle of 5 runs]
viability, T/C (compound 0.1 µM): 90% [middle of 5 runs]
viability, T/C (compound 0.316 µM): 62.1% [middle of 5 runs]
viability, T/C (compound 1 µM): 48.2% [middle of 5 runs]
viability, T/C (compound 3.16 µM): 44.7% [middle of 5 runs]
IC50 (curve of compound): 880 nM [middle of 5 runs]

Cn1ncnc1[C@H]1c2n[nH]c(=O)c3cc(F)cc(c23)N[C@@H]1c1ccc(F)cc1 + C=CC(=O)N1CCN(c2nc(=O)n(-c3c(C)ccnc3C(C)C)c3nc(-c4c(O)cccc4F)c(F)cc23)C(C)C1
IC50 [1]: 23.3 nM
IC50 [2]: 13.5 nM
IC50 [3]: > 100 nM
IC50 [4]: > 100 nM
IC50 [5]: < 0.316 nM
viability, T/C [36]: 64.7%
viability, T/C [37]: 68.3%
viability, T/C [38]: 51.5%
viability, T/C [39]: 58.3%
viability, T/C [6]: 46.8%
viability, T/C [7]: 43.5%
viability, T/C [40]: 68.5%
viability, T/C [41]: 69.2%
viability, T/C [42]: 53%
viability, T/C [43]: 56.1%
viability, T/C [12]: 41.5%
viability, T/C [13]: 41.5%
viability, T/C [44]: 61.9%
viability, T/C [45]: 63.8%
viability, T/C [46]: 63%
viability, T/C [47]: 54.4%
viability, T/C [18]: 61%
viability, T/C [19]: 59.4%
viability, T/C [48]: 66.6%
viability, T/C [49]: 64.3%
viability, T/C [50]: 57%
viability, T/C [51]: 66.9%
viability, T/C [24]: 52.9%
viability, T/C [25]: 49%
viability, T/C [52]: 40.1%
viability, T/C [53]: 46.6%
viability, T/C [54]: 42.9%
viability, T/C [55]: 36.4%
viability, T/C [30]: 38%
viability, T/C [31]: 33.9%

CC1COCCN1c1cc(-c2ccnn2C)c2ccnc(-c3ccn[nH]3)c2n1 (centres undefined)
viability, T/C (compound 0.316 µM): 16.9% [middle of 5 runs]
viability, T/C (compound 1 µM): 16.8% [middle of 5 runs]
viability, T/C (compound 3.16 µM): 17.2% [middle of 5 runs]

CCNC(=O)CC1N=C(c2ccc(Cl)cc2)c2cc(OC)ccc2-n2c(C)nnc21 (centres undefined) + CC1OCC2(CCN(c3cnc(Sc4ccnc(N)c4Cl)c(N)n3)CC2)C1N
IC50 [1]: 250 nM
IC50 [2]: 200 nM
IC50 [3]: 136 nM
IC50 [4]: 50.8 nM
IC50 [5]: < 31.6 nM
viability, T/C [6]: 103%
viability, T/C [7]: 74.5%
viability, T/C [8]: 45.2%
viability, T/C [9]: 27.6%
viability, T/C [10]: 28.6%
viability, T/C [11]: 28.1%
viability, T/C [12]: 96.2%
viability, T/C [13]: 65.5%
viability, T/C [14]: 40.9%
viability, T/C [15]: 25.1%
viability, T/C [16]: 24.3%
viability, T/C [17]: 23.6%
viability, T/C [18]: 75.9%
viability, T/C [19]: 55.6%
viability, T/C [20]: 34.5%
viability, T/C [21]: 19.8%
viability, T/C [22]: 22.1%
viability, T/C [23]: 19.7%
viability, T/C [24]: 60%
viability, T/C [25]: 35.5%
viability, T/C [26]: 25.9%
viability, T/C [27]: 21.2%
viability, T/C [28]: 16.1%
viability, T/C [29]: 15.3%
viability, T/C [30]: 32.4%
viability, T/C [31]: 21.7%
viability, T/C [32]: 18.6%
viability, T/C [33]: 11.5%
viability, T/C [34]: 11.7%
viability, T/C [35]: 9.82%
